In ChEMBL document CHEMBL5036306 (J Med Chem, 2021):
The source made the active and inactive calls. The rule behind the calls is not given here.

Columns and labels:
Histone deacetylase 3 [1] = biological target: T1, Histone deacetylase 3 (Homo sapiens, UniProt O15379); assay: Inhibition of recombinant HDAC3 (unknown origin) at 1 uM using Boc-Lys(Ac)-AMC as substrate preincubated for 1 hr followed by substrate addition and measured after 2 hrs by fluorescence based assay relative to control; settings: time 3.0 hrs
[2] = Antioxidant activity assessed as DPPH radical scavenging activity incubated for 30 mins under dark condition by microplate reader based assay; type: functional
[3] = biological target: T2, Protein deacetylase HDAC6 (Homo sapiens) (UniProt Q9UBN7); assay: Inhibition of recombinant HDAC6 (unknown origin) at 1 uM using Boc-Lys(Ac)-AMC as substrate preincubated for 1 hr followed by substrate addition and measured after 2 hrs by fluorescence based assay; settings: time 3.0 hrs
T2 sequence (whole entry): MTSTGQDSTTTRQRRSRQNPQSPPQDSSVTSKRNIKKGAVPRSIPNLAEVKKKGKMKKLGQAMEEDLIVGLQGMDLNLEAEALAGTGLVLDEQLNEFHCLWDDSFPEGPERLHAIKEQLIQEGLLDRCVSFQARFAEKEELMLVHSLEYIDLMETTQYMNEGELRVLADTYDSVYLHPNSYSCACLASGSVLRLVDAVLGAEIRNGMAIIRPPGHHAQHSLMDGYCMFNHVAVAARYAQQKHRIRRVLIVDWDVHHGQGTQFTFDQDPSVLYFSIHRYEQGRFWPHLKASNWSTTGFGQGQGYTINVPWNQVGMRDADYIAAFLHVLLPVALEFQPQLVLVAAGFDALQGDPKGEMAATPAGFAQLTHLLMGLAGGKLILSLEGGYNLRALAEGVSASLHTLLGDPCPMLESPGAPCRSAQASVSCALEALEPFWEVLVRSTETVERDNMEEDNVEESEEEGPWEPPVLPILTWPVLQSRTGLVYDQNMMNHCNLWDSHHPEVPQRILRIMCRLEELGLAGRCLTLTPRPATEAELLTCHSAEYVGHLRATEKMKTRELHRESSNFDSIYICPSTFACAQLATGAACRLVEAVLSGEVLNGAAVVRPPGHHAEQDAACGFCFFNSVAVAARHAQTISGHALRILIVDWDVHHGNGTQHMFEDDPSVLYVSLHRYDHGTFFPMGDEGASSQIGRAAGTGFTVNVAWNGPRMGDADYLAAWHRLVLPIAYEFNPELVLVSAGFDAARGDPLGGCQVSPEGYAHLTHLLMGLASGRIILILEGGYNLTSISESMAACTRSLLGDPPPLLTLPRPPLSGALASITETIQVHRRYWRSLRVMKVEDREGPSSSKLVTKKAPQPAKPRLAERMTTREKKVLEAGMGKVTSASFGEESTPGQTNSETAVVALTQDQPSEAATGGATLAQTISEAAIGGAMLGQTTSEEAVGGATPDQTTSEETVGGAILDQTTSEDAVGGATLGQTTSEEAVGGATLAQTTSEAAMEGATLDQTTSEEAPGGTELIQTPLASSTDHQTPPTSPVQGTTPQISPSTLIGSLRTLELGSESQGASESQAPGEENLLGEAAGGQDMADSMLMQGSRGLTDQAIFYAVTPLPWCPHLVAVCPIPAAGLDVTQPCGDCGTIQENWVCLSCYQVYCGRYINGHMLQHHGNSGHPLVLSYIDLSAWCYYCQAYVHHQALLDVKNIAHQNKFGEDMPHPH

[4] = Antioxidant activity of compound assessed as trolox equivalent of AAPH radical scavenging activity at 2 to 4 uM preincubated for 15 mins followed by AAPH addition and measured every 2 mins for 90 mins by ORAC-fluorescein assay; type: functional; settings: dose 2-4 µM, time 105.0 min
[5] = biological target: T3, Protein deacetylase HDAC6 (Homo sapiens, UniProt Q9UBN7); assay: Inhibition of recombinant HDAC6 (unknown origin) using Boc-Lys(acetyl)-AMC as substrate preincubated for 1 hr followed by substrate addition and measured after 2 hrs by fluorescence based assay
T3 sequence (Q9UBN7 whole entry): T2 sequence (whole entry)

Homo sapiens = organism: Homo sapiens; assay: Selectivity ratio of IC50 for recombinant HDAC3 (unknown origin) to IC50 for recombinant HDAC6 (unknown origin)
Histone deacetylase 3 [6] = biological target: T1, Histone deacetylase 3; assay: Inhibition of recombinant HDAC3 (unknown origin) using Boc-Lys(acetyl)-AMC as substrate preincubated for 1 hr followed by substrate addition and measured after 2 hrs by fluorescence based assay
HT-22 [7] = assay: Neuroprotection against iodoacetic acid-induced ATP depletion in mouse HT-22 cells assessed as cell viability at 50 uM; type: functional, cell-based
HT-22 [8] = assay: Neuroprotection against glutamate-induced oxytosis in mouse HT-22 cells assessed as cell viability at 50 uM; type: functional, cell-based
Mus musculus [9] = assay: Anti-alzheimer activity against amyloid beta (25 to 35) induced working memory deficit mouse assessed as increase in spontaneous alternation performance by measuring total number of arm entries at 0.16 mg/kg, ip administered for 7 days and measured on day 8 by Y-maze test; type: functional, organism-based; settings: time 8.0 day
Mus musculus [10] = assay: Anti-alzheimer activity against amyloid beta (25 to 35) induced working memory deficit mouse assessed as step-through latency time to enter dark compartment at 1 mg/kg, ip administered for 7 days and measured on day 9 days by passive avoidance test; type: functional, organism-based; settings: time 9.0 day
[11] = Neurotoxicity in mouse HT-22 cells assessed as cell survival at 10 uM incubated for 48 hrs by MTT assay; type: cell-based; settings: for viability at 48 h, 10 µM: HT-22 cells, read-out: Activity
Mus musculus [12] = assay: Anti-alzheimer activity against amyloid beta (25 to 35) induced working memory deficit mouse assessed as step-through latency time to enter dark compartment at 1 mg/kg, ip administered for 7 days and measured on day 9 days in presence of melatonin and ferulic acid by passive avoidance test; type: functional, organism-based; settings: time 7.0 day
[13] = Metal chelating activity compound-Zn2+ complex formation at 10 to 200 uM preincubated for 2 mins followed by di-thizone addition by microplate reader based assay; settings: dose 10-200 µM
Mus musculus [14] = assay: Anti-alzheimer activity against amyloid beta (25 to 35) induced working memory deficit mouse assessed as increase in spontaneous alternation performance by measuring total number of arm entries at 0.3 mg/kg, ip administered for 7 days and measured on day 8 in presence of melatonin and ferulic acid by Y-maze test; type: functional, organism-based; settings: time 8.0 day
Mus musculus [15] = assay: Neuroprotection against mouse model of Alzheimer's disease at 1 mg/kg; type: functional, organism-based
Mus musculus [16] = assay: Anti-alzheimer activity against amyloid beta (25 to 35) induced working memory deficit in mouse assessed as increase in spontaneous alternation performance at 1 mg/kg, ip administered for 7 days and measured on day 8 by Y-maze test; type: functional, organism-based; settings: time 7.0 day
[17] = Toxicity in mouse model of Alzheimer's disease assessed as drug tolerability at 0.3 to 3 mg/kg, ip measured after 7 days; type: organism-based; settings: in vivo, 168 h, dose 0.3-3 mg/kg, time 7 day
[18] = Metal chelating activity assessed as Fe2+ -ferrozoine complex formation at 10 to 200 uM preincubated for 2 mins followed by ferrozine addition and further incubated for 10 mins by microplate reader based assay; settings: dose 10-200 µM, time 12.0 min
[19] = Metal chelating activity assessed as compound-Cu2+ complex formation at 10 to 200 uM incubated for 2 mins followed by pyrocatechol violet addition and further incubated for 10 mins by microplate reader based assay; settings: dose 10-200 µM, time 12.0 min
Mus musculus [20] = assay: Cognitive enhancing effect in mouse model of Alzheimer's disease at 1 mg/kg; type: functional, organism-based
Mus musculus [21] = assay: Anti-alzheimer activity against amyloid beta (25 to 35) induced working memory deficit mouse assessed as step-through latency time to enter dark compartment at 0.3 to 3 mg/kg, ip administered for 7 days and measured on day 9 days by passive avoidance test; type: functional, organism-based; settings: dose 0.3-3 mg/kg, time 9.0 day

T1 sequence (O15379 whole entry): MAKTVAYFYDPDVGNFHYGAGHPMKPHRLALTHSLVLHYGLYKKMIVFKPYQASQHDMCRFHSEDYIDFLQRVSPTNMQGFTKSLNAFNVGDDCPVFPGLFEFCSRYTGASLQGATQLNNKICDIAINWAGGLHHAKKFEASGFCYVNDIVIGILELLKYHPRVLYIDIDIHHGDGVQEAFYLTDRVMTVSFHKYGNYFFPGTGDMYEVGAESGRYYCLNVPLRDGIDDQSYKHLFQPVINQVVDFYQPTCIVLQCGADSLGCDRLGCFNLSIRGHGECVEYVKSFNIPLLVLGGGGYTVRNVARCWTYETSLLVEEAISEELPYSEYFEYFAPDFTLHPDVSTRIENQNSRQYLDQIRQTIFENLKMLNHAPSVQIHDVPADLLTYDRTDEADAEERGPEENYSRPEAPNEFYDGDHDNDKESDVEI

SMILES	EC50 [2] [µM]	ORAC antioxidant capacity (Trolox equivalents) [4]	IC50 [5] [µM]	Ratio IC50 (Homo sapiens)	IC50 (Histone deacetylase 3 [6]) [µM]	other results
COc1ccc2[nH]cc(CCNC(=O)c3ccc(C(=O)NO)cc3)c2c1	62	2.4				inhibition (Histone deacetylase 3 [1]): 87%; inhibition [3]: 88%
COc1ccc2[nH]cc(CCNC(=O)CCCCC(=O)NO)c2c1	292	3				inhibition (Histone deacetylase 3 [1]): 25%
COc1ccc2[nH]cc(CCN(Cc3ccc(/C=C/C(=O)NO)cc3)C(=O)/C=C/c3ccc(O)c(OC)c3)c2c1	8.5	1	0.0256	6	0.163	Activity (HT-22 [7]): Active; Activity (HT-22 [8]): Active
COc1ccc2[nH]cc(CCNC(=O)/C=C/c3ccc(C(=O)NO)cc3)c2c1	65	2	0.0337	< 1	0.0197	
COc1ccc2[nH]cc(CCNC(C)=O)c2c1 [MELATONIN]	> 6000	2				Activity (Mus musculus [9]): inactive; Activity (Mus musculus [10]): inactive
COc1ccc2[nH]cc(CCNC(=O)CN(CCCCCC(=O)NO)C(=O)/C=C/c3ccc(O)c(OC)c3)c2c1	19.1	3.2	0.057	2	0.121	
COc1ccc2c(c1)c(CCNC(C)=O)cn2CCCCCC(=O)NO	262	1.6	0.0523	9	0.494	
COc1ccc2[nH]cc(CCNC(=O)c3ccc(/C=C/C(=O)NO)cc3)c2c1	25.2	2	0.0191	< 1	0.0036	viability at 48 h, 10 µM [11]: 60%
O=C(CCCCCCNC(=O)c1cnc(N(c2ccccc2)c2ccccc2)nc1)NO [RICOLINOSTAT]	255	0.5				Activity (Mus musculus [12]): inactive; Activity ([11]; ht-22, 48 h, 10 µM): Toxic; Activity [13]: Active; Activity (Mus musculus [14]): inactive; Activity (Mus musculus [15]): Active; Activity (Mus musculus [16]): Active; Activity [17]: Non-Toxic; Activity [18]: Active; Activity [19]: Active; Activity (Mus musculus [20]): Active; Activity (Mus musculus [21]): Active
COc1ccc2c(c1)c(CCNC(C)=O)cn2Cc1ccc(/C=C/C(=O)NO)cc1	31.4	1.4	0.0688	3	0.182	
COc1ccc2[nH]cc(CCNC(=O)CN(Cc3ccc(/C=C/C(=O)NO)cc3)C(=O)/C=C/c3ccc(O)c(OC)c3)c2c1	8.3	1.2	0.0532	2	0.108	
COc1ccc2[nH]cc(CCNCc3ccc(C(=O)NO)cc3)c2c1	66.7	3				inhibition (Histone deacetylase 3 [1]): 26%; inhibition [3]: 43%
COc1ccc2[nH]cc(CCN(CCCCCC(=O)NO)C(=O)/C=C/c3ccc(O)c(OC)c3)c2c1	8.9	2.8	0.353	2	0.811	
COc1ccc2[nH]cc(CCNCc3ccc(/C=C/C(=O)NO)cc3)c2c1	17.1	2.4	0.0214	< 1	0.0051	viability at 48 h, 10 µM [11]: 50%
COc1cc(/C=C/C(=O)O)ccc1O [FERULATE]	13.7	3.1				
COc1ccc2[nH]cc(CCNC(=O)CN(Cc3ccc(C(=O)NO)cc3)C(=O)/C=C/c3ccc(O)c(OC)c3)c2c1	15.2	1.6				inhibition [3]: 19%
